1 compound from patent US20250073167A1, “A POLYMER TO INCREASE THE BIOAVAILABILITY OF A PHARMACEUTICAL COMPOUND” (CATALYA, priority 2022, published 2025) can be followed below.

A short description of the data set: Oral delivery of fluorescein with 10 kDa polymer: bioavailability and recovery in blood, urine and feces. The data set is classed as in vivo, rat. The conditions noted are these: ingestion. The method, then:
Eighteen rats have been selected and have been given either no polymer (rats 1, 2, 10, 11), or the polymer (10 kDa) at a dose of 5 mg/kg (rats 13-15), 50 mg/kg (rats 4-6, 12, 16-18) or 300 mg/kg (rats 3 and 7-9). Fluorescein has been either covalently coupled to the polymer (rats 4-9 and 13-18; labelled as PO or IV in the figures), or physically (non-covalently) adhered to the polymer (rats 3 and 12); labelled as PO* or IV* in the figures.
The polymer has been administered either per ingestion (PO or PO*) or by injection (IV or IV*). Blood concentration of the polymer-fluorescein (FIG. 1), or of the (potentially-free) fluorescein (FIG. 2) has been measured in the blood, in the feces (FIG. 4) and in urine (FIG. 3).

Take `O=C1OC2(c3ccc(O)cc3Oc3cc(O)ccc32)c2ccccc21` [free fluorescein, fluorescein]: the “ingested fluorescein found in the feces” value (rats (FIG. 4)) was above 99%. Further, the ingested fluorescein internalized entry (rats, without the polymer) is “less than 1%”.
